# ChEMBL document CHEMBL3046807, “Synthesis and anti-inflammatory evaluation of some new 3,6-disubstituted-1,2,4-triazolo-[3,4-b]-1,3,4-thiadiazoles bearing pyrazole moiety” (2012)
# System: Rattus norvegicus
# Assay: Anti-inflammatory activity in Rattus norvegicus Wistar (rat) assessed as inhibition of carrageenan-induced paw edema at 20 mg/kg, ip administered 30 min post carrageenan-challenge measured after 2.5 hr relative to control
# Format: functional
# Details: route intraperitoneal
row,SMILES,inhibition in vivo at 20 mg/kg
1,CCc1nnc2sc(-c3c[nH]nc3-c3ccccc3)nn12,29.4%
2,CCc1nnc2sc(-c3c[nH]nc3-c3ccc(F)cc3)nn12,23.5%
3,CCc1nnc2sc(-c3c[nH]nc3-c3ccc(OC)cc3)nn12,17.6%
4,CCc1nnc2sc(-c3c[nH]nc3-c3ccc(Cl)cc3)nn12,56.9%
5,CCCc1nnc2sc(-c3c[nH]nc3-c3ccccc3)nn12,56.9%
6,CCCc1nnc2sc(-c3c[nH]nc3-c3ccc(F)cc3)nn12,12%
7,CCCc1nnc2sc(-c3c[nH]nc3-c3ccc(OC)cc3)nn12,13.5%
8,CCCc1nnc2sc(-c3c[nH]nc3-c3ccc(Cl)cc3)nn12,64.7%
9,CCc1nnc2sc(-c3c[nH]nc3-c3ccc(Cl)cc3Cl)nn12,25.5%
10,CCCc1nnc2sc(-c3c[nH]nc3-c3ccc(Cl)cc3Cl)nn12,23.5%

# System: Rattus norvegicus
# Assay: Anti-inflammatory activity in Rattus norvegicus Wistar (rat) assessed as inhibition of carrageenan-induced paw edema at 10 mg/kg, ip administered 30 min post carrageenan-challenge measured after 2.5 hr relative to control
# Format: functional
# Details: route intraperitoneal
row,SMILES,inhibition in vivo at 10 mg/kg
1,O=C(O)Cc1ccccc1Nc1c(Cl)cccc1Cl [DICLOFENAC SODIUM],80.4%
